Results on 21 molecules are retold here after patent EP4782445A1, “CDK KINASE INHIBITOR AND USE THEREOF” (Abbisko Therapeutics Co., Ltd., priority 2023, dated 2025).

The term IC50 denotes the concentration that gives 50% inhibition. High values mean weaker potency, low ones greater potency.

For one assay, the target named is T1, CDK4/cyclin D3 (Homo sapiens, UniProt P11802).
T1 construct: purchased Carna
The experiment in a line: In vitro biochemical kinase activity assay for CDK4/cyclin D3 (HTRF). As for the experimental part:
II. In Vitro Biochemical Kinase Activity Assay for CDK4/Cyclin D3
The inhibitory effects of the compounds of the present invention on CDK4/cyclin D3 kinase activity were determined using an HTRF assay. The experimental process was as follows: • 1. The kinase reaction was carried out in a 384-well plate. 4.9 nM CDK4/cyclin D3 (Carna), 1 mM (or 80 µM) ATP, and 0.3 µM biotin-labeled substrate protein Rb-biotin (Cisbio) were incubated at 30°C for 90 min in a buffer system composed of 50 mM MgCl2, 1 mM DTT, and basal kinase buffer (Cisbio). • 2. The detection solution (Cisbio, containing reagents that specifically recognize phosphorylated Rb and Rb-biotin proteins, respectively) was added. The plate was then sealed with a film (to protect from light and volatilization) and incubated at 25°C for 60 min. • 3. The plate was transferred to an Envision plate reader to detect FRET signals. (The 665/615 ratio was calculated by reading the emission at 665 nm and 615 nM, respectively.) • 4. The IC50 values were determined by analyzing the inhibition at varying compound concentrations using Model 205 in the XLfit software.
For orientation: Time-resolved FRET reads energy transfer from a long-lived donor to a nearby acceptor.

The target in the next assay is T2, CDK6/cyclin D3 (Homo sapiens, UniProt Q00534).
T2 construct: purchased Carna
T2 sequence (Q00534 whole entry): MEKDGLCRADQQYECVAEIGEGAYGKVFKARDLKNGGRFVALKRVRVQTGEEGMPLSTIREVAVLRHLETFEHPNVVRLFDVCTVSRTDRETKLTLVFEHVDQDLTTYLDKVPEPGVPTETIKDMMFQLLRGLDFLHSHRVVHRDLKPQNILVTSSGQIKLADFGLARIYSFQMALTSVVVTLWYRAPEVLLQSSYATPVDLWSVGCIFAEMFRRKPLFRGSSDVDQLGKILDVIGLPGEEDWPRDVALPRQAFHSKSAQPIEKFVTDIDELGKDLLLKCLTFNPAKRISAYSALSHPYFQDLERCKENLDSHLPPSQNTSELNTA
T2 sequence (P30281 whole entry partner): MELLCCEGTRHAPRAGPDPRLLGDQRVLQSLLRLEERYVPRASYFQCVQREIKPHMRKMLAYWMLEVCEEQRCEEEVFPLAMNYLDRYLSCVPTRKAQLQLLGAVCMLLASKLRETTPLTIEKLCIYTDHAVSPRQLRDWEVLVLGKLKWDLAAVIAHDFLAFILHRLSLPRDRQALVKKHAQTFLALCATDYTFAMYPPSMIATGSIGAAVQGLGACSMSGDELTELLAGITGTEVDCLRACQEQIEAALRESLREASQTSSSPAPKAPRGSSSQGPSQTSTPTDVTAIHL
In words: In vitro biochemical kinase activity assay for CDK6/cyclin D3 (HTRF). The protocol:
III. In Vitro Biochemical Kinase Activity Assay for CDK6/Cyclin D3
The inhibitory effects of the compounds of the present invention on CDK6/cyclin D3 kinase activity were determined using an HTRF assay. The experimental process was as follows: 1. The kinase reaction was carried out in a 384-well plate. 0.02 nM CDK6/cyclin D3 (Carna), 1 mM (or 100 µM) ATP, and 0.3 µM biotin-labeled substrate protein Rb-biotin (Cisbio) were incubated at 30°C for 60 min in a buffer system composed of 5 mM MgCl2, 1 mM DTT, and basal kinase buffer (Cisbio). 2. The detection solution (Cisbio, containing reagents that specifically recognize phosphorylated Rb and Rb-biotin proteins, respectively) was added. The plate was then sealed with a film (to protect from light and volatilization) and incubated at 25°C for 60 min. 3. The plate was transferred to an Envision plate reader to detect FRET signals. (The 665/615 ratio was calculated by reading the emission at 665 nm and 615 nM, respectively.) 4. The IC50 values were determined by analyzing the inhibition at varying compound concentrations using Model 205 in the XLfit software.

Setting [1] is: data marked with *: 1 mM ATP in Step 1.
[2] abbreviates: unmarked data: 100 µM ATP in Step 1.

T1 sequence (P11802 whole entry): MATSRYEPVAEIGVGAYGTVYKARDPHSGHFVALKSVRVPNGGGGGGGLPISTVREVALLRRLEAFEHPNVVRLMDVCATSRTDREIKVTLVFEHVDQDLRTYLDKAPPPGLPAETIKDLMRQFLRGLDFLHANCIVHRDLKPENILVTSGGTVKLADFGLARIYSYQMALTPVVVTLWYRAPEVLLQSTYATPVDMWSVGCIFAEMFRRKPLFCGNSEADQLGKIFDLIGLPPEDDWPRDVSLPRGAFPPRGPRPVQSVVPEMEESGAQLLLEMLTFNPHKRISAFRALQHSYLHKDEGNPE
T1 sequence (P30281 whole entry partner): as the sequence (P30281 whole entry partner) above

Take `CC(C)n1c(C#Cc2nc(N[C@@H]3CCOC[C@H]3O)ncc2Cl)cnc1CN1CCC[C@@H](O)C1` [Example 78, (R)-1-((5-((5-chloro-2-(((3 S,4R)-3-hydroxytetrahydro-2H-pyran-4-yl)amino)pyrimidin-4-yl)ethynyl)-1-isopropyl-1H-imidazol-2-yl)methyl)piperidin-3-ol]: the figures for the IC50 against CDK4/cyclin D3 (setting [1]) and at CDK6/cyclin D3 (setting [1]) were 75.5 nM and 393 nM, respectively.
In the case of `Cc1ncc(C#Cc2nc(N[C@@H]3CCOC[C@H]3O)ncc2Cl)n1C(C)C` [Example 79, (3 S,4R)-4-((5-chloro-4-((1-isopropyl-2-methyl-1H-imidazol-5-yl)ethynyl)pyrimidin-2-yl)amino)tetrahydro-2H-pyran-3-ol], the IC50 against CDK4/cyclin D3 (setting [1]) worked out at 17.2 nM; at CDK6/cyclin D3 (setting [1]), 179 nM.
Take `CCN1CC2(C1)CN(c1ccc(Nc3ncc(Cl)c(C#Cc4cnc(C)n4C(C)C)n3)nc1)C2` [Example 80, 5-chloro-N-(5-(6-ethyl-2,6-diazaspiro[3.3]heptan-2-yl)pyridin-2-yl)-4-((1-isopropyl-2-methyl-1H-imidazol-5-yl)ethynyl)pyrimidin-2-amine]: the IC50 against CDK4/cyclin D3 (setting [1]) was found to be 2.65 nM; on CDK6/cyclin D3 (setting [1]), 12 nM.
As for `CCN1CC2(C1)CN(c1ccc(Nc3ncc(F)c(C#Cc4cnc(C)n4C(C)C)n3)nc1)C2` [Example 81, N-(5-(6-ethyl-2,6-diazaspiro[3.3]heptan-2-yl)pyridin-2-yl)-5-fluoro-4-((1-isopropyl-2-methyl-1H-imidazol-5-yl)ethynyl)pyrimidin-2-amine], the IC50 against CDK4/cyclin D3 (setting [1]) is 9.86 nM; on CDK6/cyclin D3 (setting [1]), 59.1 nM.
`CC(C)c1c(C#Cc2nc(Nc3ccc(N4CC5(CN(CCF)C5)C4)cn3)ncc2F)cnn1C` [Example 82, 5-Fluoro-N-(5-(6-(2-fluoroethyl)-2,6-diazaspiro[3.3]heptan-2-yl)pyridin-2-yl)-4-((5-isopropyl-1-methyl-1H-pyrazol-4-yl)ethynyl)pyrimidin-2-amine]: the IC50 at CDK4/cyclin D3 (setting [1]) was found to be 3.25 nM; against CDK6/cyclin D3 (setting [1]) it was 29.5 nM.
Regarding `CCN1CCN(Cc2ccc(Nc3ncc(Cl)c(C#Cc4cnc(C(C)(C)O)n4C(C)C)n3)nc2F)CC1` [Example 84, 2-(5-((5-chloro-2-((5-((4-ethylpiperazin-1-yl)methyl)-6-fluoropyridin-2-yl)amino)pyrimidin-4-yl)ethynyl)-1-isopropyl-1H-imidazol-2-yl)propan-2-ol], the IC50 against CDK4/cyclin D3 (setting [1]) worked out at 7.44 nM; at CDK6/cyclin D3 (setting [1]) it was 48.9 nM.
Regarding `CC(C)n1c(C#Cc2nc(N[C@@H]3CCOC[C@H]3C)ncc2Cl)cnc1C(C)(C)O` [Example 86, 2-(5-((5-chloro-2-(((3 S,4R)-3-methyltetrahydro-2H-pyran-4-yl)amino)pyrimidin-4-yl)ethynyl)-1-isopropyl-1H-imidazol-2-yl)propan-2-ol], the IC50 was found to be 480 nM at CDK4/cyclin D3 (unmarked data: 80 µM ATP in Step 1) and 1970 nM against CDK6/cyclin D3 (setting [2]).
Consider `CC(=O)N[C@@H]1COCC[C@H]1Nc1ncc(Cl)c(C#Cc2cnc(C(C)(C)O)n2C(C)C)n1` [Example 87, N-((3 S,4R)-4-((5-chloro-4-((2-(2-hydroxypropan-2-yl)-1-isopropyl-1H-imidazol-5-yl)ethynyl)pyrimidin-2-yl)amino)tetrahydro-2H-pyran-3-yl)acetamide], for which the results for the IC50 against CDK4/cyclin D3 (setting [1]) and at CDK6/cyclin D3 (setting [1]) were 3970 nM and 9360 nM, respectively.
Regarding `CC(C)n1c(C#Cc2nc(N[C@@H]3CCOC[C@H]3O)ncc2Br)cnc1C(C)(C)O` [Example 88, (3S,4R)-4-((5-bromo-4-((2-(2-hydroxypropan-2-yl)-1-isopropyl-1H-imidazol-5-yl)ethynyl)pyrimidin-2-yl)amino)tetrahydro-2H-pyran-3-ol], the values for the IC50 on CDK4/cyclin D3 (setting [1]) and on CDK6/cyclin D3 (setting [2]) were 12.6 nM and 51.1 nM, respectively.
Take `CC(=O)N1CC2(C1)CN(c1ccc(Nc3ncc(F)c(C#Cc4cnn(C)c4C(C)C)n3)nc1)C2` [Example 89, 1-(6-(6-((5-fluoro-4-((5-isopropyl-1-methyl-1H-pyrazol-4-yl)ethynyl)pyrimidin-2-yl)amino)pyridin-3-yl)-2,6-diazaspiro[3.3]heptan-2-yl)ethan-1-one]: the IC50 at CDK4/cyclin D3 (setting [1]) came out at 16.2 nM; on CDK6/cyclin D3 (setting [1]), 44.9 nM.
For the molecule `CC(C)n1c(C#Cc2nc(N[C@@H]3CCOC[C@H]3O)ncc2Cl)cnc1C1(O)CCCC1` [Example 90, (3 S,4R)-4-((5-chloro-4-((2-(1-hydroxycyclopentyl)-1-isopropyl-1H-imidazol-5-yl)ethynyl)pyrimidin-2-yl)amino)tetrahydro-2H-pyran-3-ol], the IC50 on CDK4/cyclin D3 (setting [1]) is 23 nM; against CDK6/cyclin D3 (setting [1]), 253 nM.
Regarding `CC(C)n1c(C#Cc2nc(N[C@@H]3CCOC[C@H]3F)ncc2Cl)cnc1C(C)(C)O` [Example 91, 2-(5-((5-chloro-2-(((3 S,4R)-3-fluorotetrahydro-2H-pyran-4-yl)amino)pyrimidin-4-yl)ethynyl)-1-isopropyl-1H-imidazol-2-yl)propan-2-ol], the IC50 at CDK4/cyclin D3 (setting [1]) was 88.2 nM; against CDK6/cyclin D3 (setting [1]), 333 nM.
Take `COC1COCC[C@H]1Nc1ncc(Cl)c(C#Cc2cnc(C(C)(C)O)n2C(C)C)n1` (stereo partly drawn) [Example 92, 2-(5-((5-chloro-2-(((4R)-3-methoxytetrahydro-2H-pyran-4-yl)amino)pyrimidin-4-yl)ethynyl)-1-isopropyl-1H-imidazol-2-yl)propan-2-ol]: the IC50 against CDK4/cyclin D3 (setting [1]) is 99.7 nM; against CDK6/cyclin D3 (setting [1]), 520 nM.
For `CC(C)c1c(C#Cc2nc(Nc3ccc(N4CC5(CN(C)C5)C4)cn3)ncc2F)cnn1C` [Example 93, 5-fluoro-4-((5-isopropyl-1-methyl-1H-pyrazol-4-yl)ethynyl)-N-(5-(6-methyl-2,6-diazaspiro[3 .3]heptan-2-yl)pyridin-2-yl)pyrimidin-2-amine], the IC50 at CDK4/cyclin D3 (setting [1]) was determined as 7.28 nM; at CDK6/cyclin D3 (setting [1]), 33.7 nM.
As for `CC(C)n1c(C#Cc2nc(Nc3ccc(N4CCN(C)CC4=O)cn3)ncc2Cl)cnc1C(C)(C)O` [Example 94, 1-(6-((5-chloro-4-((2-(2-hydroxypropan-2-yl)-1-isopropyl-1H-imidazol-5-yl)ethynyl)pyrimidin-2-yl)amino)pyridin-3-yl)-4-methylpiperazin-2-one], the results for the IC50 on CDK4/cyclin D3 (setting [1]) and on CDK6/cyclin D3 (setting [1]) were 5.53 nM and 17.6 nM, respectively.
Consider `CC(C)n1c(C#Cc2nc(N[C@@H]3CCOC[C@H]3O)ncc2F)cnc1C(C)(C)O` [Example 95, (3 S,4R)-4-((5-fluoro-4-((2-(2-hydroxypropan-2-yl)-1-isopropyl-1H-imidazol-5-yl)ethynyl)pyrimidin-2-yl)amino)tetrahydro-2H-pyran-3-ol], for which the IC50 against CDK4/cyclin D3 (setting [1]) came to 117 nM; at CDK6/cyclin D3 (setting [1]) it was 829 nM.
As for `CC(C)n1c(C#Cc2nc(N[C@@H]3CCOC[C@H]3O)ncc2Cl)cnc1CN1CCC[C@@H](C#N)C1` [Example 98, (R)-1-((5-((5-chloro-2-(((3 S,4R)-3-hydroxytetrahydro-2H-pyran-4-yl)amino)pyrimidin-4-yl)ethynyl)-1-isopropyl-1H-imidazol-2-yl)methyl)piperidin-3-carbonitrile], the IC50 at CDK4/cyclin D3 (setting [1]) was found to be 8.08 nM; against CDK6/cyclin D3 (setting [1]), 198 nM.
The corresponding values for `CC(C)n1c(C#Cc2nc(N[C@H]3CC[C@H](NS(C)(=O)=O)CC3)ncc2Cl)cnc1C(C)(C)O` [Example 99, N-((1R,4R)-4-((5-chloro-4-((2-(2-hydroxypropan-2-yl)-1-isopropyl-1H-imidazol-5-yl)ethynyl)pyrimidin-2-yl)amino)cyclohexyl)methanesulfonamide] are 28.1 nM and 190 nM.
As to `CC(C)n1c(C#Cc2nc(Nc3ccc(C(=O)N(C)C)cn3)ncc2Cl)cnc1C(C)(C)O` [Example 100, 6-((5-chloro-4-((2-(2-hydroxypropan-2-yl)-1-isopropyl-1H-imidazol-5-yl)ethynyl)pyrimidin-2-yl)amino)-N,N-dimethylnicotinamide], the values for the IC50 on CDK4/cyclin D3 (setting [1]) and at CDK6/cyclin D3 (setting [1]) were 6.69 nM and 25.9 nM, respectively.
`CC(C)n1c(C#Cc2nc(N[C@@H]3CCOC[C@H]3C#N)ncc2Cl)cnc1C(C)(C)O` [Example 101, (3R,4R)-4-((5-chloro-4-((2-(2-hydroxypropan-2-yl)-1-isopropyl-1H-imidazol-5-yl)ethynyl)pyrimidin-2-yl)amino)tetrahydro-2H-pyran-3-carbonitrile]: the IC50 was found to be 786 nM against CDK4/cyclin D3 (setting [1]) and 4770 nM on CDK6/cyclin D3 (setting [1]).
Take `CC(C)n1c(C#Cc2nc(N[C@@H]3CCOC[C@H]3O)ncc2Cl)cnc1CN1CCC[C@H](C#N)C1` [Example 103, (S)-1-((5-((5-chloro-2-(((3 S,4R)-3-hydroxytetrahydro-2H-pyran-4-yl)amino)pyrimidin-4-yl)ethynyl)-1-isopropyl-1H-imidazol-2-yl)methyl)piperidin-3-carbonitrile]: the values for the IC50 against CDK4/cyclin D3 (setting [1]) and at CDK6/cyclin D3 (setting [1]) were 11.9 nM and 256 nM, respectively.
